Measurements from patent US20050112573A1, “Method of detecting toxic substance” (priority 2001, published 2005).

Test system: yeast genes (level of expressed mRNA)
Assay: DNA chip analysis of expressed mRNA of yeast genes after 2 h culture with a toxic chemical substance
Type: cell-based, Saccharomyces cerevisiae S288C
Settings: for The level of expressed mRNA in the presence of chemical substance/ (ratio to absence): transport facilitation protein gene; for The level of expressed mRNA in the presence of chemical substance/: ratio to no chemical; for The level of expressed mRNA in the presence of chemical substance/ in its absence, gene YDL078C: yeast gene YDL078C
In short: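 Values are treated-to-control fluorescence ratios from a whole-yeast-genome DNA chip (65° C, over 12 h hybridization) using Cy3/Cy5-labelled cDNA from mRNA. Log-phase S288C cells in YPD at 25° C were exposed 2 h to a toxicant at sublethal, growth-inhibiting concentration.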

sodium dodecylbenzosulfonate [(17)]
2.1: The level of expressed mRNA in the presence of chemical substance/in the absence of chemical substance (yeast gene YBR149W)
1.1: The level of expressed mRNA in the presence of chemical substance/ (ratio to absence) (yeast gene YBR132C) | The level of expressed mRNA in the presence of chemical substance/The level of expressed mRNA in the absence of chemical substance (yeast gene YBR214W) | The level of expressed mRNA in the presence of chemical substance/ (yeast gene YBR280C) | The level of expressed mRNA in the presence of chemical substance/in the absence of chemical substance (yeast gene YBR284W) | The level of expressed mRNA in the presence of chemical substance/ in its absence, gene YDL078C (energy system protein genes, 2 h culture with the chemical, ratio to control without chemical) | The level of expressed mRNA in the presence of chemical substance/ in its absence, gene YDL078C (ratio of DNA chip fluorescence intensity to that without chemical substance) | The level of expressed mRNA in the presence of chemical substance/ (yeast gene YDL123W) | The level of expressed mRNA in the presence of chemical substance/ (ratio to absence) (yeast gene YDL210W) | The level of expressed mRNA in the presence of chemical substance/ (in its absence), gene YDL215C (yeast gene YDL215C, ratio of DNA chip fluorescence intensity to that without chemical substance) | The level of expressed mRNA in the presence of chemical substance/The level of expressed mRNA in the absence of chemical substance (yeast gene YDL238C) | The level of expressed mRNA in the presence of chemical substance/in the absence of chemical substance (yeast gene YDR001C) | The level of expressed mRNA in the presence of chemical substance/ (ratio to absence) (yeast gene YDR039C) | The level of expressed mRNA in the presence of chemical substance/in the absence of chemical substance (yeast gene YDR058C) | The level of expressed mRNA in the presence of chemical substance/ in its absence, gene YDR079W (yeast gene YDR079W, energy system protein genes, 2 h culture with the chemical, ratio to control without chemical) | The level of expressed mRNA in the presence of chemical substance/ (ratio to absence), gene YDR079W (yeast gene YDR079W, mitochondria-located protein genes, 2 h culture with chemical) | The level of expressed mRNA in the presence of chemical substance/in the absence of chemical substance (yeast gene YDR204W)
1.3: The level of expressed mRNA in the presence of chemical substance/ (ratio to absence) (yeast gene YBR295W) | The level of expressed mRNA in the presence of chemical substance/in the absence of chemical substance (yeast gene YCL018W) | The level of expressed mRNA in the presence of chemical substance/ (ratio to absence), gene YCR046C (yeast gene YCR046C, mitochondria-located protein genes, 2 h culture with chemical) | The level of expressed mRNA in the presence of chemical substance/ (ratio to absence), gene YCR083W (yeast gene YCR083W, mitochondria-located protein genes, 2 h culture with chemical) | The level of expressed mRNA in the presence of chemical substance/ (ratio to absence of chemical substance) (yeast gene YCR083W, stress protein genes, DNA chip) | The level of expressed mRNA in the presence of chemical substance/in the absence of chemical substance (yeast gene YCR107W) | The level of expressed mRNA in the presence of chemical substance/ (ratio to absence) (yeast gene YDR038C) | The level of expressed mRNA in the presence of chemical substance/The level of expressed mRNA in the absence of chemical substance (yeast gene YDR085C)
0.9: The level of expressed mRNA in the presence of chemical substance/ (ratio to absence), gene YBR122C (yeast gene YBR122C, mitochondria-located protein genes, 2 h culture with chemical) | The level of expressed mRNA in the presence of chemical substance/ (ratio to absence), gene YBR251W (yeast gene YBR251W, mitochondria-located protein genes, 2 h culture with chemical) | The level of expressed mRNA in the presence of chemical substance/ (ratio to absence) (yeast gene YBR291C) | The level of expressed mRNA in the presence of chemical substance/ (yeast gene YBR292C) | The level of expressed mRNA in the presence of chemical substance/ (in its absence), gene YBR298C (yeast gene YBR298C, ratio of DNA chip fluorescence intensity to that without chemical substance) | The level of expressed mRNA in the presence of chemical substance/The level of expressed mRNA in the absence of chemical substance (yeast gene YCL020W) | The level of expressed mRNA in the presence of chemical substance/in the absence of chemical substance (yeast gene YCL043C) | The level of expressed mRNA in the presence of chemical substance/ (ratio to absence) (yeast gene YCR024C-A) | The level of expressed mRNA in the presence of chemical substance/in the absence of chemical substance (yeast gene YDL024C) | The level of expressed mRNA in the presence of chemical substance/ (ratio to absence) (yeast gene YDL128W) | The level of expressed mRNA in the presence of chemical substance/ (yeast gene YDL242W) | The level of expressed mRNA in the presence of chemical substance/ (yeast gene YDR018C) | The level of expressed mRNA in the presence of chemical substance/The level of expressed mRNA in the absence of chemical substance (yeast gene YDR104C) | The level of expressed mRNA in the presence of chemical substance/in the absence of chemical substance (yeast gene YDR127W) | The level of expressed mRNA in the presence of chemical substance/ (yeast gene YDR223W) | The level of expressed mRNA in the presence of chemical substance/in the absence of chemical substance (yeast gene YDR261C) | The level of expressed mRNA in the presence of chemical substance/ (ratio to absence) (yeast gene YDR270W)
3.8: The level of expressed mRNA in the presence of chemical substance/in the absence of chemical substance (yeast gene YBR296C)
1.7: The level of expressed mRNA in the presence of chemical substance/ (ratio to absence) (yeast gene YCR098C)
1.8: The level of expressed mRNA in the presence of chemical substance/in the absence of chemical substance (yeast gene YDL243C) | The level of expressed mRNA in the presence of chemical substance/in the absence of chemical substance (yeast gene YDL246C) | The level of expressed mRNA in the presence of chemical substance/ (in its absence), gene YDR073W (yeast gene YDR073W, ratio of DNA chip fluorescence intensity to that without chemical substance)
1.9: The level of expressed mRNA in the presence of chemical substance/in the absence of chemical substance (yeast gene YDL021W) | The level of expressed mRNA in the presence of chemical substance/in the absence of chemical substance (yeast gene YDR072C) | The level of expressed mRNA in the presence of chemical substance/ (in its absence), gene YDR297W (yeast gene YDR297W, ratio of DNA chip fluorescence intensity to that without chemical substance)
1.4: The level of expressed mRNA in the presence of chemical substance/ (ratio to absence) (yeast gene YCL038C) | The level of expressed mRNA in the presence of chemical substance/in the absence of chemical substance (yeast gene YCL040W) | The level of expressed mRNA in the presence of chemical substance/The level of expressed mRNA in the absence of chemical substance (yeast gene YCR004C) | The level of expressed mRNA in the presence of chemical substance/ (ratio to absence) (yeast gene YCR037C) | The level of expressed mRNA in the presence of chemical substance/The level of expressed mRNA in the absence of chemical substance (yeast gene YCR088W) | The level of expressed mRNA in the presence of chemical substance/ (ratio to absence) (yeast gene YDR040C) | The level of expressed mRNA in the presence of chemical substance/in the absence of chemical substance (yeast gene YDR272W)
2.3: The level of expressed mRNA in the presence of chemical substance/ (yeast gene YDL234C)
2.6: The level of expressed mRNA in the presence of chemical substance/in the absence of chemical substance (yeast gene YBR256C)
1.5: The level of expressed mRNA in the presence of chemical substance/ (yeast gene YBR269C) | The level of expressed mRNA in the presence of chemical substance/The level of expressed mRNA in the absence of chemical substance (yeast gene YDL008W) | The level of expressed mRNA in the presence of chemical substance/in the absence of chemical substance (yeast gene YDL010W) | The level of expressed mRNA in the presence of chemical substance/ (ratio to absence) (yeast gene YDL198C) | The level of expressed mRNA in the presence of chemical substance/ (yeast gene YDR154C)
2.0: The level of expressed mRNA in the presence of chemical substance/The level of expressed mRNA in the absence of chemical substance (yeast gene YDR055W) | The level of expressed mRNA in the presence of chemical substance/The level of expressed mRNA in the absence of chemical substance (yeast gene YDR084C)
0.8: The level of expressed mRNA in the presence of chemical substance/ (ratio to absence) (yeast gene YBR127C) | The level of expressed mRNA in the presence of chemical substance/in the absence of chemical substance (yeast gene YCR012W) | The level of expressed mRNA in the presence of chemical substance/ (ratio to absence) (yeast gene YDL149W) | The level of expressed mRNA in the presence of chemical substance/ (yeast gene YDR295C)
0.6: The level of expressed mRNA in the presence of chemical substance/ (ratio to absence) (yeast gene YCL025C)
2.5: The level of expressed mRNA in the presence of chemical substance/ (yeast gene YBR285W)
1.2: The level of expressed mRNA in the presence of chemical substance/ (ratio to absence) (yeast gene YBR207W) | The level of expressed mRNA in the presence of chemical substance/The level of expressed mRNA in the absence of chemical substance (yeast gene YCR071C) | The level of expressed mRNA in the presence of chemical substance/ in its absence, gene YDL067C (yeast gene YDL067C, energy system protein genes, 2 h culture with the chemical, ratio to control without chemical) | The level of expressed mRNA in the presence of chemical substance/ (ratio to absence), gene YDL067C (yeast gene YDL067C, mitochondria-located protein genes, 2 h culture with chemical) | The level of expressed mRNA in the presence of chemical substance/ (yeast gene YDL113C) | The level of expressed mRNA in the presence of chemical substance/ (yeast gene YDR056C) | The level of expressed mRNA in the presence of chemical substance/The level of expressed mRNA in the absence of chemical substance (yeast gene YDR115W)
0.7: The level of expressed mRNA in the presence of chemical substance/The level of expressed mRNA in the absence of chemical substance (yeast gene YCL027W) | The level of expressed mRNA in the presence of chemical substance/in the absence of chemical substance (yeast gene YDL095W)
1.0: The level of expressed mRNA in the presence of chemical substance/ (ratio to absence) (yeast gene YBR241C) | The level of expressed mRNA in the presence of chemical substance/ (ratio to absence) (yeast gene YBR293W) | The level of expressed mRNA in the presence of chemical substance/in the absence of chemical substance (yeast gene YBR294W) | The level of expressed mRNA in the presence of chemical substance/in the absence of chemical substance (yeast gene YCL050C) | The level of expressed mRNA in the presence of chemical substance/ (ratio to absence) (yeast gene YCL069W) | The level of expressed mRNA in the presence of chemical substance/ (ratio to absence) (yeast gene YDL206W) | The level of expressed mRNA in the presence of chemical substance/in the absence of chemical substance (yeast gene YDL245C) | The level of expressed mRNA in the presence of chemical substance/ (ratio to absence) (yeast gene YDL245C) | The level of expressed mRNA in the presence of chemical substance/ (yeast gene YDR132C) | The level of expressed mRNA in the presence of chemical substance/in the absence of chemical substance (yeast gene YDR158W) | The level of expressed mRNA in the presence of chemical substance/ (yeast gene YDR202C) | The level of expressed mRNA in the presence of chemical substance/The level of expressed mRNA in the absence of chemical substance (yeast gene YDR259C)
2.2: The level of expressed mRNA in the presence of chemical substance/in the absence of chemical substance (yeast gene YDL124W) | The level of expressed mRNA in the presence of chemical substance/in the absence of chemical substance (yeast gene YDL174C)
